For series [1] the following is noted: background statement; cited from earlier work.
The conditions of series [2]: background statement; cited from earlier work. The source holds these as a separate data set.
Series [3] concerns topoisomerase I. The following applies: background statement; cited from earlier work.
The test system of series [4] is multidrug resistant (CH^R C5) Chinese Hamster ovary cells. The series is described as follows: CHO Microtiter Cytotoxicity Assay (XTT), multidrug resistant (CH^R C5). The class given is cell-based. The settings on record: Cricetulus griseus, CHRC5, 72 h, 3 days. How it is done: (§1) The in vitro assays used to test the compound of the present invention for antitumor activity are well-known. A generalized description of these assays follows.
(§2) Chinese Hamster ovary cells are grown in Alpha MEM Medium with L-glutamine and nucleosides and containing 10% fetal bovine serum and 100 units per mL penicillin-streptomycin in 75 cm^2 canted neck tissue culture flasks. They are harvested from these flasks using 0.5% trypsin. Microtiter plates (96-well, sterile, flat bottom) (Corning 25860) are seeded with 1.6×10^3 wild-type (AUX-B 1) Chinese Hamster ovary cells per well or 2×10^3 multidrug resistant (CH^R C5) Chinese Hamster ovary cells per well. The plates are incubated at 37° C., 5% CO2 overnight to allow the cells to attach. The outside wells of each plate are not used, due to evaporation during the incubation time. They are filled with medium and used as blanks. The next day, the medium is aspirated from the wells and 180 μL of fresh medium is added to each well. Compounds are diluted from stock solution in DMSO into fresh medium to a 10X concentration containing 2% DMSO. Twenty μL of this is then added to the 180 μL, of fresh medium in the wells. The plates are then incubated for another 3 days at 37° C., 5% CO2. Eight mg of XTT (SIGMA X-4251) is dissolved in 100 μL of DMSO which is then added to 3.9 mL of phosphate buffered saline without cations (PBS). Phenazine methosulfate (SIGMA P-9625) is dissolved in PBS to a concentration of 3 mg/mL and 20 μL of this is added to the XTT solution. Fifty μL of this XTT/PMS solution is added to each well of the microliter plate and the plates are incubated for 90 minutes at 37° C., 5% CO2 (until the OD450 ~1.0). The plate is then read on a UV Max plate reader, using wells without cells (i.e., containing only 200 μL of medium and 50 μL of XTT/PMS solution) as a background control.

For series [5], the system named is topoisomerase II. The settings on record: background statement; cited from earlier work.
Series [6] has as its system P388. Kind of series: Cytotoxicity IC50, P388. Type of series: cell-based. The following applies: Mus musculus.
Series [7] deals with wild-type (AUX-B 1) Chinese Hamster ovary cells. Kind of series: CHO Microtiter Cytotoxicity Assay (XTT), wild-type (AUX-B1). The following applies: Cricetulus griseus, AuxB1, 72 h, 3 days, read-out: Cytotoxicity IC50, Wildtype (AUX-B1). The class given is cell-based. As to the method:
as §1, §2

Series [8] has as its system P388. The series is described as follows: Efficacy in mouse tumor model P388 (in vivo). As to the method: The cytotoxicity and efficacy of the compound of the present invention was also tested in vivo using the well-known P388 mouse tumor model.
For series [9], the system named is solid tumor cancers, particularly ovarian cancer and non-small cell lung carcinoma. The settings on record: humans; cited from earlier work.

Data on five compounds can be found in patent US5663177A (SmithKline Beecham Corporation, priority 1995, dated 1997).

Structures are written as SMILES.

The IC50 is the concentration at which inhibition is half-maximal.

As to `CC[C@@]1(O)C(=O)OCc2c1cc1n(c2=O)Cc2cc3c(N)cccc3nc2-1` [9-aminocamptothecin, (S)-10-amino-4-ethyl-4-hydroxy-1H-pyrano[3',4':6,7]indolizino[1,2-b]quinoline-3, 14(4H,12H)-dione], in [1], the water solubility result is given as “limited water solubility”.

For the compound `CCc1c2c(nc3ccc(OC(=O)N4CCC(N5CCCCC5)CC4)cc13)-c1cc3c(c(=O)n1C2)COC(=O)[C@]3(O)CC` [CPT-11, (S)-[1,4'-bipiperidine]-1'-carboxylic acid,4,11-diethyl-3,4,12,14-tetrahydro-4-hydroxy-3, 14-dioxo-1H-pyrano[3',4':6,7]indolizino[1,2-b]quinolin-9-yl], the toxicity entry in series [2] is on record as “adverse toxicity profile”.

With `CC[C@@]1(O)C(=O)OCc2c1cc1n(c2=O)Cc2cc3ccccc3nc2-1` [Camptothecin], in series [1], the water solubility entry is given as “water-insoluble”. The “inhibition of topoisomerase I” value in series [3] is listed as “known to inhibit topoisomerase I”. Also, the concentration for half-maximal inhibition (IC50) in series [4] turned out to be 35 nM; in series [6], 12 nM; in series [7], 15 nM. Moreover, the “effect on topoisomerase II” value in series [5] is “no effect on topoisomerase II”.

On to `CC[C@@]1(O)C(=O)OCc2c1cc1n(c2=O)Cc2c-1nc1ccc(O)c3c1c2CN(C)C3` [Formula I, S-9-ethyl-2,3-dihydro-4,9-dihydroxy-2-methyl-1H,12H-benzo[ij]pyrano[3', 4':6,7]indolizino[1,2-c][2,6]naphthyridine-10,13(H,15H)-dione], for which the IC50 in [4] was 840 nM; in [6], 24 nM; in series [7], 52 nM. The “Efficacy in Mouse Tumor Models, % Inc. in Lifespan, P388” value in [8] (dose 40 mg/kg ip) came out at 111%. In addition, in series [8] (summary of Table I), the “biological activity (cytotoxicity and efficacy in mouse tumor models) versus topotecan” value is “comparable to topotecan”.

`CC[C@@]1(O)C(=O)OCc2c1cc1n(c2=O)Cc2cc3c(CN(C)C)c(O)ccc3nc2-1` [Topotecan, 9-dimethylaminomethyl-10-hydroxycamptothecin]: the “efficacy in clinical tests” value in series [9] is “demonstrated efficacy against several solid tumor cancers, particularly ovarian cancer and non-small cell lung carcinoma in humans”. Moreover, the half-inhibitory concentration (IC50) in series [4] is 2300 nM; in series [6], 30 nM; in series [7], 790 nM. For the same compound, the “Efficacy in Mouse Tumor Models, % Inc. in Lifespan, P388” value in series [8] (dose 14.4 mg/kg, route not given) is listed as 156%.
